The text below walks through data of patent publication US20090264470A1 (priority 2006, published 2009).

Experiment [1] can be described thus: Acute administration: wet mash and food intake and 24 h body weight in lean male C57BL/6J mice. The class given is in vivo, mouse. Particulars: dosed orally at 10 mg/kg.
Description: The goal of this study was to investigate the effects of various ratios of bupropion:(R)-norfluoxetine on body weight and food and water intake in male C57BL/6J mice habituated to the daily presentation of a palatable wet mash diet. […] Animals were maintained on normal-phase lighting. Test compounds were administered orally and measurements were made over the following 24 hours. All experiments included appropriate vehicle-treated control groups.
Sixty-two male C57BL/6J mice (weight range 20-25 g) were ordered from Harlan UK, Bicester, UK. The mice were individually housed in polypropylene cages at a temperature of 21±4° C. and 55%±20% humidity. Animals were maintained on a normal phase light-dark cycle (lights off for 12 h from 19:00-07:00 h) during which time the room was illuminated by red light. […] In addition, animals were habituated to a daily presentation of a wet mash diet (1 part powdered chow:1.5 parts tap water) placed on a dish on the cage floor. Animals were maintained under these conditions for at least ten days before experimentation commenced.
Typically an acute study was run each week with each study containing 60 animals. On the day prior to testing, the experimental animals were randomly allocated to suitable treatment groups. Animals were weighed and 2 h wet mash intake was calculated (to the nearest 0.1 g). […]
Drug administration occurred 60 minutes before the presentation of ‘wet mash’ which was at approximately 09:30 am. […] The mash was replaced with a fresh quantity of wet mash at the 4 hour time point. […] Wet mash was replaced with a known quantity of standard pellets at the 6 hour time point. […] Food and water intakes of the different groups of animals were measured concurrently. The animals were monitored at each reading and any overt drug-induced behavioural effects were recorded. […]
Results (body weights (g) at 0, 24 h; change in body weight (g) over 24; food and water intake at 1, 2, 4, 6 and 24 h and between 1-2 h, 2-4 h, 4-6 h) were expressed as mean values±SEM. […]
Experiment [2] is described as follows: Body weight of diet-induced obese male C57BL/6J mice, repeated oral dosing for 28 days. The class given is in vivo, mouse. Particulars: Dunnett's test p<0.001; doses as in Table 2. On the procedure: Sibutramine, which is currently used clinically, and rimonabant, which has recently received regulatory approval for the management of obesity were used as reference compounds.
Sixty-five C57BL/6J mice (7-8 weeks of age) were ordered from Charles River, Margate, Kent. Mice were group housed in polypropylene cages with free access to a high fat diet (D12451 45% of Kcal derived from fat; Research Diets, New Jersey, USA) and tap water at all times. Animals were maintained at 21±4° C. and 55±20% humidity on a normal phase 12 h light-dark cycle (lights on 04:30 h)
Animals were exposed to the high fat diet for 16 weeks. During this time body weight was recorded weekly. […] Body weight and food and water intake was recorded daily. […]
Body weight and food and water intake were recorded daily. Following drug administration the animals were examined and any overt behaviour was recorded. […]
The test compounds were dissolved in 1% methylcellulose. […] Drug doses were expressed as free base.
Resulting body weights, food intake and water intake were expressed as mean values±SEM, and the SEMs are calculated from residuals of the statistical model. Body weight data was analysed by ANCOVA with Day 1 as covariate followed by appropriate comparisons (two-tailed) to determine significant differences from the control group. […] Daily food and water intake data was analysed by ANOVA.

Experiment [3] concerns the target T1, Human Cannabinoid 1 (CB1) (Homo sapiens, UniProt P21554).
T1 construct: expressed in transfected cells; host or cells: CHO cells stably expressing the GqΔGi chimera
Description: Ca2+i response to 2-AG (dose-response with or without compound), CB1 GqΔGi/CHO cells, DSIS flow cytometry. Format: cell-based. The note with it: 2-AG with or without compound (FIG. 2). An excerpt: cDNA for the G protein GqΔGi chimera was generated by PCR and inserted into the polylinker region of the pcDNA3/hygro+vector (Invitrogen). Stable expression of GqΔGi chimera protein in CHO cell line was generated under hygromycin selection. Human Cannabinoid 1 (CB1) cDNA was inserted into the polylinker region of the pcDNA3.1/(+) vector (Invitrogen) and DNA was introduced into the GqΔGi/CHO cell line by Lipofectamine reagent (Invitrogen). Cell lines stably expressing the CB receptor with Gq ΔGi chimera protein were generated by double selection with hygromycin and G418 (Coward, P., et al. 1999. Chimeric G proteins allow a high-throughput signaling assay of Gi-coupled receptors. Anal Biochem. 270:242-8).
CB1 Cells were plated 24-48 hours in advance, and were harvested with trypsin at ˜80% confluency. […]
The probe-loaded CB1 and Control cell mixture was placed in the Cell Suspension System on the DSIS where they were continuously rocked to keep them in a suspended state. […] The DSIS software, NVS Sampler, recorded a timing file and the CyAn software, Summit, recorded a data file. These two files were then compiled and analyzed by our proprietary software, NVS Analyzer, to determine the percent of cells that responded to each concentration. The data was transferred to GraphPAD Prism for a non-linear regression curve fit that determined the EC50. […]

The target in experiment [4] is T2, mouse CB1 (mouse brain membrane) (Mus musculus, UniProt P47746).
T2 construct: human CB1 receptors or mouse brain membrane preparations in 96-well plate format; from tissue; host or cells: mouse brain membrane preparations
Description: Competition ligand binding assay, mouse brain membrane preparations. The note with it: mouse brain membranes (FIG. 6). On the procedure: (§1) Competition ligand binding assays were performed with the non-selective cannabinoid receptor agonist ([^3H]CP 55,940) (0.75 nM) in the binding buffer containing 50 mM Tris-HCl, pH 7.4, 3 mM MgCl2, 1 mM EDTA, 0.2% BSA using CHO-k1 cell membranes stably expressing human CB1 receptors or mouse brain membrane preparations in 96-well plate format. The receptor membranes (10 μg/well) were pre-incubated with different concentrations of tested compounds in the binding buffer at room temperature for 30 min prior to addition of 0.75 nM [^3H]CP 55,940 in a final volume of 100 μl. The binding was carried out at room temperature for another 2 h. To determine the non-specific binding, experiments were also performed in the presence of 10 μM unlabeled CP 55,940. Binding was terminated by addition of cold binding buffer and filtrated on Whatman GF/B glass-fiber filters using a sampling manifold. The filters were washed 6 times with cold binding buffer and air-dried overnight. The radioactivity was quantitated on a TopCounter (PerkinElmer) after adding scintillation fluid. Specific binding was defined as the difference between the binding in the presence and absence of 10 μM unlabeled CP 55, 940.

Experiment [5] has as its target T3, human CB1 receptors (Homo sapiens, UniProt P21554).
T3 construct: expressed in transfected cells; host or cells: CHO-k1 cells (membranes)
Description: Competition ligand binding assay, CHO-k1 cell membranes. The note with it: human CB1 cell membranes (FIG. 6). The protocol: as §1

Experiment [6] addresses T3, human CB1 receptors. Description: [35S]GTPγS binding assay, CHO-k1 cell membranes. Format: biochemical. On the procedure:
[^35S]GTPγS binding assays were performed with CHO-k1 cell membranes stably expressing human CB1 receptors in 96-well ScintiPlate (PerkinElmer). The membranes (12.5 μg/well) were preincubated with compound 7 in the binding buffer (50 mM Tris-HCl, pH 7.4, 100 mM NaCl, 3 mM MgCl2, 0.2 mM EDTA, 0.2% BSA and 10 μM GDP) at 30° C. for 30 min, then added various concentrations of agonists (WIN 55212-2 or CP 55,940) and [^35S]GTPγS (0.2 nM) in a final volume of 200 μl. Reactions were carried out at 30° C. for 60 min, followed by centrifugation of plate at […] for 15 min. After removing supernatant, the radioactivity was quantitated on a TopCounter.
(GTPγS is a poorly hydrolysed GTP analogue; its binding reports G protein activation.)

Experiment [7] addresses T4, CB2 receptor (Homo sapiens, UniProt P34972).
T4 construct: host or cells: CB2 receptor bearing cells
Nature of the experiment: Ca2+i response to 2-AG (dose-response with or without compound), CB2 receptor bearing cells. The class given is cell-based. The note with it: CB2 receptor bearing cells (FIG. 2).

T3 sequence (P21554 whole entry): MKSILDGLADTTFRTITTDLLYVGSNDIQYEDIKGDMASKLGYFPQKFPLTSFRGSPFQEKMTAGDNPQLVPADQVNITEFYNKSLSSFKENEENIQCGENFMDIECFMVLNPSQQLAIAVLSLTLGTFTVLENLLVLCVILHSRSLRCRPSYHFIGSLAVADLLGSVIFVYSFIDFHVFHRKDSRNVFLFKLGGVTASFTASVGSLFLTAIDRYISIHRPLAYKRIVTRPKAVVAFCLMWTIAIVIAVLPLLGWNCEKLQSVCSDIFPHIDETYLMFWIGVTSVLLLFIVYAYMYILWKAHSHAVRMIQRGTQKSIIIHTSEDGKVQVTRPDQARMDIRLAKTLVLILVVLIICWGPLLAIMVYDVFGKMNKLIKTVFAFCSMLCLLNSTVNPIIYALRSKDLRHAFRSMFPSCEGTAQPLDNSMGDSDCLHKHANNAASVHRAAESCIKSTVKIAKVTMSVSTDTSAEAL
T1 sequence (P21554 whole entry): as above
T2 sequence (P47746 whole entry): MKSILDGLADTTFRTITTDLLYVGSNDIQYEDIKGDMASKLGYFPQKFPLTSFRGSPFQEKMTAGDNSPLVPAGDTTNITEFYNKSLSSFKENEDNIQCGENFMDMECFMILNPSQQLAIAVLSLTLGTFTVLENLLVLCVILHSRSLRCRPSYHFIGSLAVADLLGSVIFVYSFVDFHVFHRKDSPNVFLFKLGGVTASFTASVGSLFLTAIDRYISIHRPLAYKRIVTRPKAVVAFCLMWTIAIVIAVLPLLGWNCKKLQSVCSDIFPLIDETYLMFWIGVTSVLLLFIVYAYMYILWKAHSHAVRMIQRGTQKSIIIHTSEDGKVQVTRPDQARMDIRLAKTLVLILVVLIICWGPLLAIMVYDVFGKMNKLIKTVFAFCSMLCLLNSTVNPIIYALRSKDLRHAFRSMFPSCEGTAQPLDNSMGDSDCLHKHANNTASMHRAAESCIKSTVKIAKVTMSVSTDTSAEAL
T4 sequence (P34972 whole entry): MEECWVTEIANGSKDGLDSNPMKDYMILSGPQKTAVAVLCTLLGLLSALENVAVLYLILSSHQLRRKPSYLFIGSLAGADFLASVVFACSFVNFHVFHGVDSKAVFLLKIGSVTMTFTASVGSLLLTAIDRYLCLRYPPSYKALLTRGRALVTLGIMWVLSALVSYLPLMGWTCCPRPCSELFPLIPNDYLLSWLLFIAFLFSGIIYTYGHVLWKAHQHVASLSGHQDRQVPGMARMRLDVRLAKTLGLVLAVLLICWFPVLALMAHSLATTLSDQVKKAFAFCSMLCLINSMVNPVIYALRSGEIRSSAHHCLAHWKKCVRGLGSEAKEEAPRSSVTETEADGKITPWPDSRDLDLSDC

For the molecule `Cc1c(C(=O)NN2CCCCC2)nn(-c2ccc(Cl)cc2Cl)c1-c1ccc(Cl)cc1` [Rimonabant], in experiment [1] (one-way ANOVA (FIG. 10)), the “24 hour body weight change versus vehicle” value is on record as “No significant differences versus vehicle”. Moreover, in experiment [1] (one-way ANOVA (FIG. 15)), the “daily food intake versus vehicle” value is “No significant differences versus vehicle”. For the same molecule, in experiment [1] (one-way ANOVA (FIG. 16)), the “body weight versus vehicle” value is reported as “No significant differences versus vehicle”. Also, in experiment [2], the “weight reduction as compared to vehicle on day 29” value is listed as “statistically significant weight reduction”.

Turning to `Fc1ccc(C(OCCCc2c[nH]cn2)c2ccc(F)cc2)cc1` [compound 7], the “effect on the 2-AG dose response (Ca2+i)” value in experiment [3] is “right shift”; in experiment [7], “No effect”. Moreover, the “inhibition of binding of [3H]CP 55,940” value is recorded as “almost fully inhibited” in experiment [4] and “partially inhibited” in experiment [5]. The “pA2 estimation using CP 55940 as an agonist” value in experiment [6] (CB1 cell line membranes (FIG. 4)) was “did not support an allosteric effect”. Further, the “antagonist versus inverse agonist activity in [35S]GTPγS binding” value in experiment [6] (response dropped below basal levels (FIG. 5)) is on record as “inverse agonist activity”.
